These results are taken from paper PMC4742234, “Screening of Drug Metabolizing Enzymes for the Ginsenoside Compound K In Vitro: An Efficient Anti-Cancer Substance Originating from Panax Ginseng” (PLoS ONE, 2016).

For data set [1], the system named is CYP1A2, CYP2A6, CYP2D6, CYP2E1, CYP2C19. In words: Effect of the other specific inhibitors on CK metabolism in HLMs. The conditions noted are these: CK 50 μM, furafylline, tranylcypromine, quinidine, ticlopidine 1 μM, chlormethiazole 5 μM. The data set is classed as in vitro ADME, human. The protocol: The method was conducted according to our previous study with some modifications. The CYP isoform-specific probe reactions used were phenacetin O-deethylation (for CYP1A2), coumarin 7-hydroxylation (for CYP2A6), tolbutamide 4-hydroxylation (for CYP2C9), metoprolol α-hydroxylation (for CYP2D6), chlorzoxazone 6-hydroxylation (for CYP2E1),S-Mephenytoin 4-hydroxylation (for CYP2C19), and midazolam 1-hydroxylation (for CYP3A4). The kinetic study of CK was conducted with HLMs. A 0.2 mL incubation mixture that consisted of CK (as a substrate), the HLMs (0.5 mg/mL) or CYP isoforms (10 pmol), and 0.1 M sodium phosphate buffer (pH 7.4) was pre-warmed for 5 min at 37°C. The reaction was initiated by the addition of 1 mg/mL triphosphopyridine nucleotide (NADPH). […]
To screen the specific CYP isoform responsible for the CK metabolism, we determined the inhibitory effect of specific inhibitors on the metabolism of CK in the HLMs as described in detail previously. […] The inhibitory effects of the above specific inhibitors on the metabolic clearance rate of CK were evaluated separately to screen the CYP isoforms responsible for the CK metabolism. The relative activity of the CYP isoforms was calculated by dividing the peak area of CK when incubated with the inhibitor by that of CK from the negative controls. […]

Data set [2] addresses T1, CYP1A2 (Homo sapiens, UniProt P05177).
T1 construct: tissue Cypex Ltd. (U.K.); host or cells: pooled human liver microsomes
T1 sequence (P05177 1-516): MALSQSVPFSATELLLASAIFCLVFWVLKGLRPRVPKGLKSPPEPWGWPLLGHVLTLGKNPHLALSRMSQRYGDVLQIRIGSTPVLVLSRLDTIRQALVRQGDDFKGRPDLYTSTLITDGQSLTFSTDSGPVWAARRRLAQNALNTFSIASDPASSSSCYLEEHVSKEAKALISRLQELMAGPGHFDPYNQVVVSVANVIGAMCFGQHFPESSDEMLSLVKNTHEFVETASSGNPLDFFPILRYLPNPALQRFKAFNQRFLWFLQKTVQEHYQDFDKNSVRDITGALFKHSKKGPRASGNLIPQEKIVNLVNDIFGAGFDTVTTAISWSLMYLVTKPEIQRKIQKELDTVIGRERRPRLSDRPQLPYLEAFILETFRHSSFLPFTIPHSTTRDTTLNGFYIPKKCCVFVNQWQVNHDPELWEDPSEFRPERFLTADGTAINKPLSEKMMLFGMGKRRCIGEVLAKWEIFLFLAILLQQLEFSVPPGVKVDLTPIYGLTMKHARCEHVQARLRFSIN
In words: Inhibition of CYP1A2 (phenacetin O-deethylation) by CK in HLMs. The class given is in vitro ADME. The protocol: The method was conducted according to our previous study with some modifications. The CYP isoform-specific probe reactions used were phenacetin O-deethylation (for CYP1A2), coumarin 7-hydroxylation (for CYP2A6), tolbutamide 4-hydroxylation (for CYP2C9), metoprolol α-hydroxylation (for CYP2D6), chlorzoxazone 6-hydroxylation (for CYP2E1),S-Mephenytoin 4-hydroxylation (for CYP2C19), and midazolam 1-hydroxylation (for CYP3A4). The kinetic study of CK was conducted with HLMs. A 0.2 mL incubation mixture that consisted of CK (as a substrate), the HLMs (0.5 mg/mL) or CYP isoforms (10 pmol), and 0.1 M sodium phosphate buffer (pH 7.4) was pre-warmed for 5 min at 37°C. The reaction was initiated by the addition of 1 mg/mL triphosphopyridine nucleotide (NADPH). All the reagents were dissolved in methanol, and the final solvent concentration in all incubations (including the controls) was 1%. The final incubations were performed in a shaking water bath (37°C) for 30 min. The reactions were stopped by adding 0.2 mL ice-cold acetonitrile, which contains irbesartan (114.9 ng/mL) as the internal standard. The samples were vortexed for 5 min. After centrifugation (12000×g for 10 min), the supernatants were transferred, and aliquots of 20 μL were injected into the HPLC-MS/MS system for analysis.
CK (10–100 μM) and a single CYP isoform-specific substrate (with a concentration similar to its corresponding Kmvalue) were used to determine the inhibitory effect of CK on specific CYP isoforms as described in detail previously. Substrates including phenacetin, coumarin, tolbutamide, metoprolol, chlorzoxazone, S-Mephenytoin, and midazolam were used at concentrations of 10, 5, 100, 7.5, 40, 100, and 5 μM, respectively. All incubation conditions were the same as mentioned above. The inhibitory effects on the CYP isoforms were investigated individually by incubating the HLMs in the absence or presence of CK. […]

The term pIC50 denotes the negative decadic logarithm of the IC50, by convention in mol/L. Read a high pIC50 as a small IC50.

pIC50: −log10 of the molar value. “Also recorded” adds a separate entry of the source.

As to `CC(C)=CCC[C@](C)(OC1O[C@H](CO)[C@@H](O)[C@H](O)[C@H]1O)[C@H]1CC[C@]2(C)[C@@H]1[C@H](O)C[C@@H]1[C@@]3(C)CC[C@H](O)C(C)(C)[C@@H]3CC[C@]12C` (stereo partly drawn) [CK, 20-O-β-(D-glucopyranosyl)-20(S)-protopanaxadiol], the “effect of other specific inhibitors / CYP isoforms on CK metabolism” value in data set [1] was “minimal or no effect; also recorded: no obvious inhibitory effects; also recorded: no significant inhibitory effects”. For the same compound, in data set [2] (HLMs, CK 10–100 μM), the “inhibitory effect on the activity of CYP1A2” value is “minimal; also recorded: negligible”. Besides, in data set [2] (HLMs, phenacetin 10 μM, CK 10–100 μM), the pIC50 is less than 4.00. In addition, in data set [2] (classified by IC50 according to Kong et al), the “inhibitor potency class for CYP1A2” value was “weak (weak, if IC50≥100 μg/mL or ≥50 μM)”.
